Assay results as given in patent US7834148B2, “Protein phosphorylation imaging systems, methods of making phosphorylation imaging systems, and methods of use thereof” (Stanford University, priority 2006, dated 2010).

Key:
Akt kinase = assay: In vitro Akt kinase assay in cell lysates using purified GSK-3β as substrate; format: cell-based, human; settings: LY 24 hours or perifosine 6 hours
Protocol: Complemented FL activities were determined by bioluminescence imaging of intact cells while Akt phosphorylation status/kinase activities in cell lysates were determined by phosphorylation-specific western blotting and in vitro kinase assay using purified glycogen synthase kinase 3β (GSK-3β) as the substrate, respectively.
To measure Akt kinase activities, 200 μg of whole cell lysates were used in an in vitro Akt kinase assay using a Cell Signaling kit (Beverly, Mass.). Briefly, Akt was immunoprecipitated using the immobilized Akt antibody, followed by an in vitro kinase assay at 30° C. for 1 hour using 1 μg of the purified GSK-3β fusion protein as the substrate. The kinase reaction was terminated with 3× loading buffer and heated at 95° C. for 3 mins. […] Membranes were developed as described above. In all cases, band intensities were quantified by Image J (National Institute of Health, Bethesada, Md.).

[1] = Water solubility (statement); format: physicochemical
Akt kinase activity = assay: Bioluminescence imaging of nude mice bearing 293T/AS1T and 293T/AS1A xenografts; format: in vivo; settings: 30 mg/kg
Protocol: FIGS. 10a-10b illustrate the inhibition of Akt kinase activity by perifosine in living mice. FIG. 10a illustrates the efficacy of perifosine in inhibition of Akt kinase activity in living subjects was determined by bioluminescence imaging of nude mice bearing 293T/AS1A and 293T/AS1T xenografts. Mice were treated with 30 mg/kg of perifosine or carrier control at time 0 hour and re-imaged at 6, 15, 27 and 39 hours upon i.p. injection of D-Luciferin. FIG. 10b illustrate the max photons at each time point was normalized to that of carrier control treated mice and expressed as average normalized max photons+/−S.E.M. for each xenograft. It should be noted that p<0.05 relative to AS1A xenografts.
To determine if sufficient sensitivity for indirect imaging of Akt kinase activity has been achieved in living subjects, 293T/AS1T and 293T/AS1A cells were implanted at the lower left and right of nude mice for xenograft establishment. Since the bioluminescence signal from untreated 293T/AS1A cells was about 10-fold higher than that of 293T/AS1T cells in cell culture studies, 10% 293T/AS1A cells were mixed with 90% untransfected 293T cells (no FL activity) prior to implantation to normalize the signals to that of 293T/AS1T cells. Complemented FL activity in living mice was determined by bioluminescence imaging using a cooled coupled charged device (CCD) camera upon i.p. injection of D-luciferin. […] Perifosine was chosen over LY for these animal experiments since perifosine is water soluble and currently being evaluated in clinical trials. […] 6 hours of perifosine treatment led of a 20% decrease in complemented FL activity in 293T/AS1A but a 60% increase in complemented FL activity in 293T/AS1T relative to carrier control treated mice (p<0.05), corresponding to the 2-fold difference between AS1T and AS1A (FIG. 10b).
All of the animal handling was performed in accordance with Stanford University Animal Research Committee guidelines, Mice were gas anesthetized using isofluorane (2% isofluorane in 100% oxygen) during all injection and imaging procedures. Mice were imaged using a cooled CCD camera (Xenogen IVIS29; Xenogen Corp., Alameda, Calif.). […] To quantify the measured light, regions of interest were drawn over the area of the implanted cells, and the maximum photons/s/cm^2/steradian (sr) were obtained as validated previously. […] Max photons at time 6, 12 and 24 hours were normalized to that of time 0 hr for each individual mouse, and expressed as normalized average max photons±S.E.M.

water solubility [1]: water soluble
SMILES: CCCCCCCCCCCCCCCCCCOP(=O)([O-])OC1CC[N+](C)(C)CC1 [perifosine]
amount of phosphorylated GSK-3β (Akt kinase; 293T/AS1A cells): decreased
amount of phosphorylated GSK-3β (Akt kinase; 293T/AS1T cells, relative to carrier control): decreased
decrease in complemented FL activity (Akt kinase activity; 293T/AS1A xenografts, 6 hours, relative to carrier control treated mice): 20%
complemented FL activity at later time points (Akt kinase activity; 293T/AS1T and 293T/AS1A xenografts, later than 6 hours, relative to carrier control, p>0.05): no significant difference
increase in complemented FL activity (Akt kinase activity; 293T/AS1T xenografts, 6 hours, relative to carrier control treated mice, p<0.05): 60%
difference between AS1T and AS1A (Akt kinase activity; xenografts, 6 hours): 2 fold
